Test systems include COLO 205 colon; MDA-MB-435; UO-31 renal; HCC-2998 colon; HL-60(TB) leukemia; HCT-116 colon.
What all share (test): DTP human tumour cell line panel, 48 h

“And” between values parts separate entries of the source, which are not always exact repeats. Identical values can stand only once.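 1) Cells in 96-well plates. 2) Compound, 48 h, 5 concentrations. 3) Linear interpolation between surrounding doses. 4) Unreached endpoint = highest concentration. GI50 = concentration required for 50% inhibition of growth. Definition used: TGI = concentration required for complete inhibition of growth.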 A value given as a limit tells only on which side of the number the result lay.

As to `NC(=NCCCOc1ccc(Cl)cc1)Nc1ccc(C(F)(F)F)cc1`, the GI50 (usually the concentration that inhibits growth by half) in the experiment with COLO 205 colon is 1.54 µM; with MDA-MB-435, 1.73 µM; in the experiment with UO-31 renal it was 1.85 µM; in the experiment with HCC-2998 colon it was 1.2 µM; in the experiment with HL-60(TB) leukemia, 1.59 µM; in the experiment with HCT-116 colon, 1.32 µM. The TGI – broadly, the concentration at which net growth stops – was found to be 3.25 µM with COLO 205 colon; 3.45 µM in the experiment on MDA-MB-435; 7.37 µM with UO-31 renal; 2.64 µM in the experiment with HCC-2998 colon; 3.77 µM in the experiment on HL-60(TB) leukemia; 2.74 µM with HCT-116 colon.

For the compound `C[C@H]1c2cccc(O)c2C(O)=C2C(=O)[C@]3(O)C(O)=C(C(N)=O)C(=O)[C@@H](N(C)C)[C@@H]3[C@@H](O)[C@@H]21`, the GI50 was 1.88 µM in the experiment on COLO 205 colon; 3.01 µM in the experiment with MDA-MB-435; 3.15 µM in the experiment with UO-31 renal; 2.97 µM in the experiment with HCC-2998 colon; 2.3 µM in the experiment with HL-60(TB) leukemia; 2.89 µM in the experiment with HCT-116 colon. Also, the total growth inhibition concentration (TGI) stood at 3.63 µM in the experiment with COLO 205 colon; 12.6 µM in the experiment on MDA-MB-435; 15.1 µM in the experiment with UO-31 renal; 12.7 µM with HCC-2998 colon; 6.56 µM with HL-60(TB) leukemia; 10.5 µM in the experiment with HCT-116 colon.

As for `CC(C)(C)OC(=O)NCC(O)CNC(=O)OC(C)(C)C`, the concentration for total growth inhibition (TGI) in the experiment with COLO 205 colon, in the experiment on MDA-MB-435, in the experiment with UO-31 renal, in the experiment with HCC-2998 colon, in the experiment on HL-60(TB) leukemia and in the experiment on HCT-116 colon was more than 100 µM each time.

As to `CCN1CCN(c2ccc(Nc3cc(N(C)C(=O)Nc4c(Cl)c(OC)cc(OC)c4Cl)ncn3)cc2)CC1`, the GI50 in the experiment on COLO 205 colon was 1.93 µM; in the experiment with MDA-MB-435, 1.86 µM; in the experiment on UO-31 renal it was 1.35 µM; in the experiment on HCC-2998 colon it was 8.04 µM; in the experiment with HL-60(TB) leukemia, 2.14 µM; in the experiment with HCT-116 colon it was 1.73 µM. The TGI with COLO 205 colon amounted to 3.47 µM; with MDA-MB-435, 3.71 µM; with UO-31 renal, 10 µM; in the experiment with HCC-2998 colon, 32.5 µM; in the experiment on HL-60(TB) leukemia it was 4.42 µM; in the experiment on HCT-116 colon, 5.2 µM.

For `C=C(F)C(=O)N1CCN(c2nc(OC[C@@H]3CCCN3C)nc3c2CCN(c2cccc4cccc(Cl)c24)C3)C[C@@H]1CC#N`, the GI50 is 0.578 µM in the experiment on COLO 205 colon; 0.961 µM in the experiment with MDA-MB-435; 1.13 µM in the experiment with UO-31 renal; 1.2 µM in the experiment with HCC-2998 colon; 0.86 µM in the experiment with HL-60(TB) leukemia; 0.562 µM in the experiment on HCT-116 colon. For the same compound, the TGI was determined as 1.98 µM in the experiment on COLO 205 colon; 2.22 µM in the experiment with MDA-MB-435; 2.57 µM in the experiment on UO-31 renal; 2.66 µM in the experiment on HCC-2998 colon; 2.5 µM with HL-60(TB) leukemia; 1.88 µM in the experiment on HCT-116 colon.

Consider `CNCCNc1c2c(c(NCCNC)c3c(CN(C)C)c[nH]c13)C(=O)c1ccccc1C2=O`, for which the TGI with COLO 205 colon was more than 34.5 µM; with MDA-MB-435 it was 10.7 µM; with UO-31 renal, 14.4 µM; with HCC-2998 colon, 5.37 µM; with HL-60(TB) leukemia it was more than 100 µM; in the experiment with HCT-116 colon, 8.29 µM. In addition, the GI50 was 2.5 µM in the experiment with MDA-MB-435; 3 µM in the experiment on UO-31 renal; 1.36 µM with HCC-2998 colon; 4.14 µM in the experiment with HL-60(TB) leukemia; 1.55 µM in the experiment with HCT-116 colon.

With `Cc1nc2ccccc2c(=O)n1NC(=O)c1ccc(CS)cc1`, the TGI in the experiment with COLO 205 colon was 62.9 µM; in the experiment with MDA-MB-435, 31.3 µM; with UO-31 renal, 29.9 µM; in the experiment on HCC-2998 colon, 45.8 µM; in the experiment on HL-60(TB) leukemia it was more than 100 µM; with HCT-116 colon, 16.9 µM.

In the case of `CC(C)c1ccc(Nc2ccc3c(OCCCN4CCN(C)CC4)cccc3n2)cc1`, the GI50 in the experiment with COLO 205 colon was 1.97 µM; in the experiment on MDA-MB-435 it was 6.62 µM; in the experiment on UO-31 renal, 12.9 µM; in the experiment on HCC-2998 colon, 1.77 µM; in the experiment on HL-60(TB) leukemia, 10.5 µM; with HCT-116 colon it was 5.9 µM. Also, the TGI came to 3.96 µM with COLO 205 colon; 21.4 µM in the experiment on MDA-MB-435; 27.8 µM in the experiment with UO-31 renal; 3.35 µM with HCC-2998 colon; 28.8 µM in the experiment on HL-60(TB) leukemia; 20.6 µM in the experiment with HCT-116 colon.

On to `C/C(=C\CCc1ccoc1)CC/C=C(\C)CCCC1=CC(=O)OC1`, for which the GI50 in the experiment on COLO 205 colon was 4.96 µM; in the experiment with MDA-MB-435, 5.76 µM; in the experiment on UO-31 renal, 4.35 µM; in the experiment on HCC-2998 colon, 8.4 µM; in the experiment on HL-60(TB) leukemia, 6.3 µM; in the experiment on HCT-116 colon, 4.02 µM. Besides, the TGI with COLO 205 colon was determined as 23.1 µM; with MDA-MB-435 it was 34.1 µM; with UO-31 renal, 48.7 µM; with HCC-2998 colon, 29.1 µM; in the experiment with HL-60(TB) leukemia, 32.7 µM; in the experiment with HCT-116 colon, 18.8 µM.

Turning to `COc1cc(Nc2cn[nH]c2-c2ccc(Cl)cc2)cc(OC)c1OC`, the GI50 in the experiment on COLO 205 colon is 4.39 µM; in the experiment on MDA-MB-435 it was 1.26 µM; in the experiment with UO-31 renal, 4.09 µM; in the experiment with HCC-2998 colon, 5.46 µM; with HL-60(TB) leukemia it was 2.6 µM; in the experiment with HCT-116 colon, 3.73 µM. Besides, the TGI in the experiment on COLO 205 colon came to 21.9 µM; with MDA-MB-435, 4.24 µM; with UO-31 renal, 28.8 µM; in the experiment on HCC-2998 colon it was 23.4 µM; with HL-60(TB) leukemia, 28.6 µM; in the experiment on HCT-116 colon it was 13.7 µM.

Consider `C/C1=C\CC[C@@]2(C)O[C@@H]2[C@H]2OC(=O)[C@@H](CN(C)C)[C@@H]2CC1`, for which the GI50 in the experiment with COLO 205 colon was 33.8 µM; in the experiment with MDA-MB-435, 7.68 µM; with UO-31 renal, 2.31 µM; in the experiment on HCC-2998 colon it was 18 µM; in the experiment on HL-60(TB) leukemia it was 1.46 µM; in the experiment on HCT-116 colon, 4.97 µM. Besides, the TGI with COLO 205 colon was found to be 98.4 µM; in the experiment on MDA-MB-435, 25.3 µM; with UO-31 renal, 5.95 µM; with HCC-2998 colon it was 35.7 µM; in the experiment on HL-60(TB) leukemia, 7.24 µM; with HCT-116 colon it was 20.4 µM.

In the case of `COc1ccc2c(c1)C(C)Cc1c(Cl)ncnc1N2C` (stereo unspecified), the GI50 in the experiment on COLO 205 colon is 0.261 µM; in the experiment with MDA-MB-435, 0.355 µM; in the experiment on UO-31 renal, 0.364 µM; in the experiment on HCC-2998 colon it was 0.402 µM; with HL-60(TB) leukemia it was 2 µM; in the experiment on HCT-116 colon it was 0.434 µM. The TGI in the experiment on COLO 205 colon turned out to be 0.777 µM; in the experiment on MDA-MB-435 it was 1.81 µM; with UO-31 renal, 42 µM; with HCC-2998 colon, 14.3 µM; with HL-60(TB) leukemia it was 7.06 µM; with HCT-116 colon it was 4.56 µM.

As to `Clc1ccc2c(NCCCNc3nccc(Nc4ccc(Br)cc4)n3)ccnc2c1`, the GI50 is 1.64 µM with COLO 205 colon; 1.55 µM in the experiment with MDA-MB-435; 1.52 µM in the experiment with UO-31 renal; 1.5 µM with HCC-2998 colon; 2.13 µM with HL-60(TB) leukemia; 1.36 µM with HCT-116 colon. Moreover, the TGI turned out to be 3.22 µM with COLO 205 colon; 2.92 µM in the experiment with MDA-MB-435; 3.01 µM in the experiment on UO-31 renal; 2.93 µM with HCC-2998 colon; 4.94 µM in the experiment with HL-60(TB) leukemia; 3.08 µM in the experiment on HCT-116 colon.

On to `Clc1coc2nc3ccccc3c(Nc3ccc4c(c3)OCO4)c12`, for which the GI50 in the experiment on COLO 205 colon is 2.05 µM; in the experiment with MDA-MB-435, 0.62 µM; with UO-31 renal it was 6.5 µM; in the experiment on HCC-2998 colon, 0.404 µM; in the experiment on HL-60(TB) leukemia, 0.808 µM; with HCT-116 colon it was 0.443 µM. The TGI in the experiment with COLO 205 colon was 30 µM; with MDA-MB-435, 1.46 µM; with UO-31 renal it was more than 100 µM; with HCC-2998 colon, 2.8 µM; in the experiment on HL-60(TB) leukemia it was 8.82 µM; in the experiment on HCT-116 colon, 11.8 µM.

For the compound `CC[C@]12C=CCN3CC[C@@]4(c5ccc(OC)cc5N(C)[C@H]4[C@@](O)(C(=O)OC)[C@@H]1OC(=O)CCC[P+](c1ccccc1)(c1ccccc1)c1ccccc1)[C@@H]32`, the GI50 is 0.161 µM and 0.208 µM in the experiment with COLO 205 colon; 0.239 µM and 0.348 µM in the experiment with MDA-MB-435; 8.57 µM and 13.4 µM in the experiment on UO-31 renal; 0.449 µM and 0.425 µM in the experiment with HCC-2998 colon; 0.203 µM and 0.195 µM with HL-60(TB) leukemia; 0.727 µM and 0.627 µM with HCT-116 colon. The TGI with COLO 205 colon is 0.611 µM and 0.454 µM; in the experiment on MDA-MB-435 it was 0.879 µM and 1.23 µM; in the experiment with UO-31 renal, 26.2 µM and 26.9 µM; in the experiment on HCC-2998 colon it was 2.67 µM and 1.64 µM; in the experiment on HL-60(TB) leukemia, 0.76 µM and 0.518 µM; in the experiment on HCT-116 colon, 5.59 µM and 10.4 µM.

Take `COc1ccc(C(=O)c2cc(OC)c(C)c(OC)c2)cc1OC(=O)CCl`: the GI50 with COLO 205 colon is 7.78 µM; in the experiment on MDA-MB-435 it was 0.0265 µM; in the experiment on UO-31 renal, 0.628 µM; in the experiment on HCC-2998 colon, 0.633 µM; in the experiment with HL-60(TB) leukemia, 0.066 µM; with HCT-116 colon it was 0.392 µM. For the same compound, the TGI with COLO 205 colon was 69.4 µM; with MDA-MB-435, 0.0902 µM; in the experiment with UO-31 renal, 74 µM; in the experiment on HCC-2998 colon, 19.3 µM; with HL-60(TB) leukemia, 0.193 µM; in the experiment on HCT-116 colon it was more than 38.3 µM.

With `Oc1ccc(Cl)cc1Cc1cc(Cl)cc(Cl)c1O`, the GI50 is 19.5 µM in the experiment on COLO 205 colon; 4.35 µM in the experiment on MDA-MB-435; 3.48 µM with UO-31 renal; 6.52 µM in the experiment on HCC-2998 colon; 4.64 µM in the experiment with HL-60(TB) leukemia; 3.53 µM in the experiment with HCT-116 colon. The TGI turned out to be 36.6 µM in the experiment on COLO 205 colon; 83.2 µM in the experiment with MDA-MB-435; 15.2 µM in the experiment on UO-31 renal; 18.9 µM with HCC-2998 colon; 28.6 µM in the experiment on HL-60(TB) leukemia; 12.9 µM in the experiment on HCT-116 colon.
